Measurements reported in patent US10752603B2, “Purification of oxydiphthalic anhydrides” (SABIC Global Technologies, B.V., priority 2018, dated 2020).
“Also recorded” adds a separate entry of the source.

Assay: Color stability of ODPA after heat treatment (220 to 225° C., about 8 hours)
Assay type: physicochemical
Settings: 220 to 225° C. for about 8 hours, visual observation
Procedure: The color stability of the ODPA after subjecting the ODPA to heat treatment was also examined. The heat stability testing was performed on various ODPA samples as described in Table 7. The samples were tested using a 10 wt % solution of each sample in DMF and APHA values were recorded using a Macbeth colorimeter Each sample was heat-treated by exposing the sample to a temperature of 220 to 225° C. for about 8 hours. The samples were monitored for color changes during the heat exposure duration. Visual observations are recorded in Table 7, as well as the measured APHA color values.

## O=C1OC(=O)c2cc(Oc3ccc4c(c3)C(=O)OC4=O)ccc21 [Example 74, reference compound]
  Qualitative color observations after exposure to heat: no detectable color change; also recorded: No change observed
